Here are results for three compounds from PMC7943729, “Cell-Free DNA Promotes Thrombin Autolysis and Generation of Thrombin-Derived C-Terminal Fragments” (Frontiers in Immunology, 2021).

A value given as a limit tells only on which side of the number the result lay.

Series [1] deals with genomic DNA. The series is described as follows: DNA gel shift assay (agarose gel mobility shift). Format: binding, human. Particulars: 200 ng gDNA (20 µg/ml), 10-200 ng protein or peptide, 10 mM Tris pH 7.4, 1 h 37 °C, 0.8% agarose gel, SYBR Safe; n = 3. As to the method:
The DNA used for agarose gel and western blot analysis was extracted from cultured human keratinocytes (HaCaT) cells using E.Z.N.A. DNA/RNA Isolation kit (Omega Bio-Tek USA) or E. coli DH5α plasmid DNA (pUC19) using Qiagen plasmid purification kits (Qiagen USA) according to the manufacturer’s protocol.
Following this, the samples were analyzed by gel electrophoresis on a 0.8% agarose (w/v) gel in 1X Tris acetate-EDTA (TAE) buffer with SYBR Safe and visualized with the ChemiDoc Imaging System (Bio-Rad, USA).

In series [2] the target is T1, human neutrophil elastase (Homo sapiens, UniProt P08246).
T1 sequence (P08246 30-267): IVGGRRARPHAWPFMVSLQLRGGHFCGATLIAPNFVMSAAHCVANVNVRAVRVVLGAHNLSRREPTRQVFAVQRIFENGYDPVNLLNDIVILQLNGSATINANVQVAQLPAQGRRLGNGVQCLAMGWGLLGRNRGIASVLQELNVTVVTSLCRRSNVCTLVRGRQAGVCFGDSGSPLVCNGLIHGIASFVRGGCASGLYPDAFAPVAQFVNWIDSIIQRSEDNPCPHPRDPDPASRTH
The series is described as follows: Protease protection assay. Format: in vitro ADME. Particulars: NE 1:30, 37 °C, western blot. As to the method:
Thrombin or GKY25 (0.4 µg) was incubated with DNA (w/w ratio = 1:1) in 10 mM Tris, pH 7.4 for 4 h, followed by addition of neutrophil elastase at enzyme: substrate ratio of 1:30 and incubated for various time points (1, 2, and 3 h). Post incubation, samples were boiled for 3 min to inhibit the reaction and further analyzed by Tricine SDS-PAGE as described above.

The target in series [3] is T2, human thrombin (Homo sapiens, UniProt P00734).
T2 construct: purchased Innovative Research USA
Particulars: thrombin autolysis without DNA; cited from earlier work. From the text:
Previous studies have shown that the rate of autolysis increases with concentration of thrombin, pH, temperature and concentration of monovalent cations ([31], [32]).

The target in series [4] is T2, human thrombin. Briefly: Thrombin autolysis determination by western blot. Format: biochemical. As to the method: 10 µl of citrate plasma was added to increasing concentration of DNA (6.25, 12.5, 25, and 50 µg/ml) resuspended in 10 mM Tris, pH 7.4 (total volume of 20 µl). Following an hour pre-incubation at 37 °C, 2.5 mM CaCl2 was added to samples and further incubated for 1 hour at 37 °C. After incubation, samples were boiled for 15 min with sample buffer and were analyzed by SDS-PAGE using Novex 10–20% Tris Tricine precast gels. Post electrophoresis, the gel was transferred to a PVDF membrane and blocked with 5% milk for an hour before western blotting. For detection of C-terminal thrombin fragments, overnight incubation of the blots was performed with polyclonal antibodies recognizing the thrombin C-terminal peptide VFR17 ([…]) in 1:5,000 dilution at 4 °C. […]
DNA dependent thrombin autolysis was analyzed by incubating 0.4 µg of human thrombin (Innovative Research USA) in the presence or absence of equal weight ratio (1:1) of DNA in a total volume of 10 µl for different time points (1, 2, 4, and 6 h). […] Thrombin autolysis inhibition was analyzed using 0.4 µg of heat inactivated thrombin (preboiled for 10 mins at 95 °C) incubated with equal weight ratio (1:1) of DNA for extended time of 6 h. […] In all cases, after the incubation at 37 °C, samples were boiled for 10 min in sample buffer and analyzed by western blotting as mentioned above.

Turning to thrombin, in series [1], the “amount giving complete retardation of DNA” value was at least 160 ng and the “amount giving reduced DNA migration” value worked out at 40 ng. In addition, the “thrombin fragments after neutrophil elastase in the presence of DNA” value in series [2] (0.4 µg thrombin with gDNA 1:1 w/w, increasing incubation time 60-180 min) is on record as “a higher signal intensity of the 3 kDa TCP”. Besides, in series [2] (0.4 µg thrombin, control lanes without DNA, 60-180 min), the “cleavage of thrombin by neutrophil elastase without DNA” value is recorded as “cleaved thrombin to release multiple TCPs”. The “time for complete autolytic conversion to γ-thrombin” value in series [3] is recorded as around 144 h.
In the case of heparin, in series [4] (0.4 µg human thrombin, 37 °C, western blot with anti-VFR17, DNA 1:1 for 1-6 h, NETs 4 h, heparin 1:0.5 and 1:1 for 1 h), the “induction of thrombin fragmentation / TCP formation” value is reported as “did not induce thrombin fragmentation or TCP formation”.
`O=S(=O)(F)Cc1ccccc1` [PMSF]: the “inhibition of DNA-induced TCP formation” value in series [4] (0.4 µg thrombin, DNA 1:1 w/w, 4 h 37 °C, PMSF 1 mM, protease inhibitor cocktail 1X) is “abrogated the formation of TCPs”.
